Consider 3 molecules from publication PMC7393680 (Organic & biomolecular chemistry, 2020).

Read-outs that look alike come from different tables or passages of the source.

The target of assay [1] is BPTF. Conditions: prior lead inhibitor; cited from earlier work.
The target of a further assay is 5FW-BPTF bromodomain (Homo sapiens, UniProt Q12830). As to the kind of experiment: SPR, 5FW-labeled His9-BPTF on NTA chip, steady-state. Format: binding.
In assay [2] the test system is BPTF. Conditions: ITC, cited from earlier work. For orientation: In ITC the heat of successive injections is recorded.
In assay [3] the target is 5FW-BPTF bromodomain (His9-tagged, 5-fluorotryptophan-labelled). The assay can be described thus: NMR titration.

As a reminder, the Kd is the concentration at which binding is half-saturated. `COC(=O)c1cccc(NC(=O)NC2CCN(c3ccnc(Nc4ccc(F)cc4)n3)C2)c1` (centres unmarked) [AU1]: the Kd at BPTF [1] was 2800 nM.

On to `CN(C)CCCOc1ccc(-c2cc(NCCCn3cccn3)nc(S(C)(=O)=O)n2)cc1` [compound 2, TP-238], for which the Kd at 5FW-BPTF bromodomain is 250 ± 20 nM; at BPTF [2] (read-out: Reported BPTF Kd, unlabeled BPTF, thesgc.org), 120 nM. Also, the “fold weaker affinity for BPTF over CECR2” value in the assay with BPTF [2] (BPTF vs CECR2) was 10 fold.

In assay [3], “Histone variant H2AZ.1 K4ac,K11ac peptide” displayed a dissociation constant (Kd) of 720000 nM.
